The target in the experiment is T1, GATA4–NKX2-5 transcriptional synergy (Mus musculus, UniProt P42582+Q08369).
T1 construct: expressed in transfected cells; host or cells: COS-1
The experiment in a line: GATA4–NKX2-5 transcriptional synergy luciferase reporter assay (3xNKE reporter, COS-1 cells). It is filed as cell-based. On the procedure: To screen compounds for the GATA4–NKX2-5 interaction, we have developed a luciferase reporter assay based on their property to activate gene transcription synergistically through the NKX2-5 binding site on DNA.[28] In this assay, we transfected mammalian COS-1 cells with protein expression vectors for GATA4 and NKX2-5 proteins together with artificial luciferase reporter vector containing three high affinity binding sites for NKX2-5 (NKE). […] All 257 compounds were tested in two concentrations, 3 and 10 μM. Compounds either inhibited, enhanced, or had no effect on the GATA4–NKX2-5 transcriptional synergy. To investigate the selectivity of the active compounds, we tested their effects on NKX2-5 transcriptional activity by using the same luciferase reporter vector as in transcriptional synergy assay with three NKE sites (Figure 3B). Furthermore, we used GATA luciferase reporter assay to examine if compounds have an effect on GATA4 transcriptional activity. In this assay, we cotransfected the cells with a GATA4 protein expression vector and a reporter vector with tandem GATA4 binding sites (Figure 3C). Previously we have reported that compound 1 inhibited the GATA4–NKX2-5 transcriptional synergy at micromolar concentrations (IC50 = 3 μM).[29]
The plasmids expressing mouse GATA4 protein, pMT2-GATA4, and empty pMT2 were gifts from D. B. Wilson (Department of Pediatrics, St. Louis Children’s Hospital, St. Louis, MO).[44] The plasmids expressing mouse NKX2-5 protein, pMT2-NKX2-5, have been described earlier.[28] The luciferase reporter plasmid used in GATA4–NKX2-5 transcriptional synergy assay and NKX transcriptional assay, pGL3-3xHA, contains three high affinity binding sites for NKX2-5.[28] The luciferase reporter plasmid used in GATA transcriptional assay, NP-112, contains tandem GATA-sites and minimal promoter of rat brain natriuretic peptide (BNP) gene.[45] The pGL3-BNP luciferase reporter containing −534/+4 bp rat BNP proximal promoter described previously was used in hypertrophy assay.[46]
The primary screening assay of compounds’ effect on GATA4–NKX2-5 transcriptional synergy and COS-1 cell culturing has been described earlier.[33] […] (Kinnunen et al., unpublished observation). Briefly, COS-1 cells were seeded at 14 000 cells/well in Isoplate-96 microplates (PerkinElmer, Turku, Finland) and grown overnight. The cells were transfected with the luciferase reporter plasmid pGL3-3xHA 100 ng/well and equal amounts of expression plasmids pMT2-GATA4 and pMT2-NKX2-5 total 50 ng/well. To verify the synergistic effect, the cells were transfected with pMT2-GATA4 or pMT2-NKX2-5 25 ng/well, and the total DNA concentration was adjusted to 50 ng/well with empty pMT2 plasmid. In NKX2-5 and GATA4 luciferase reporter assays, the cells were transfected with reporter plasmid pGL3-3xHA or NP-112 (100 ng/well) and expression plasmid pMT2-NKX2-5 or pMT2-GATA4 (25 ng/well). The ratio of DNA/transfection reagent (Fugene 6, Promega) was 1:3 in all assays. The transfections were performed in serum and antibiotics free media for 6 h. The cells were treated with compounds or vehicle (0.1% DMSO) for 24 h, and the luminescence was measured using neolite Reporter Gene Assay System (PerkinElmer, Turku, Finland) and Victor2 plate reader (PerkinElmer, Turku, Finland).
Raw luciferase data were analyzed in Excel, and clear outliers were removed from triplicates by using the Grubb’s test. Data analysis was performed using R.[49] The luciferase data were first normalized on the basis of the combined mean value of controls. For data visualization and creation of figures, the following R packages were used: ggplot2, cowplot, RColorBrewer, and pheatmap. The heatmaps of the toxicity data were produced with GraphPad Prism 7.00 (GraphPad Software, La Jolla, CA). Statistical significance of luciferase reporter assay data was evaluated by randomized block analysis of variance followed by Dunnett’s post hoc test. […]
On the technique in general: A reporter such as luciferase makes a cellular process visible.

The mark [1] stands for this setting: COS-1, compound at 3 µM, luciferase reporter activity, % of control.
[2] abbreviates: 3 µM compound, GATA4–NKX2-5 transcriptional synergy reporter, COS-1 cells.
Where [3] appears, read: 10 µM compound, GATA4–NKX2-5 transcriptional synergy reporter, COS-1 cells.
The mark [4] stands for this setting: COS-1, compound 3 µM, luciferase reporter activity, spread in separate STDEV column.
Where [5] appears, read: COS-1, compound at 10 µM, luciferase reporter activity, % of control.
[6] abbreviates: COS-1, 3 µM, luciferase reporter activity, % of control.
Setting [7] is: COS-1, 10 µM, luciferase reporter activity, % of control.
The mark [8] stands for this setting: COS-1, compound 3 µM, luciferase reporter activity relative to control.
Setting [9] is: COS-1, compound 10 µM, luciferase reporter activity, spread in separate STDEV column.

T1 sequence (Q08369 whole entry): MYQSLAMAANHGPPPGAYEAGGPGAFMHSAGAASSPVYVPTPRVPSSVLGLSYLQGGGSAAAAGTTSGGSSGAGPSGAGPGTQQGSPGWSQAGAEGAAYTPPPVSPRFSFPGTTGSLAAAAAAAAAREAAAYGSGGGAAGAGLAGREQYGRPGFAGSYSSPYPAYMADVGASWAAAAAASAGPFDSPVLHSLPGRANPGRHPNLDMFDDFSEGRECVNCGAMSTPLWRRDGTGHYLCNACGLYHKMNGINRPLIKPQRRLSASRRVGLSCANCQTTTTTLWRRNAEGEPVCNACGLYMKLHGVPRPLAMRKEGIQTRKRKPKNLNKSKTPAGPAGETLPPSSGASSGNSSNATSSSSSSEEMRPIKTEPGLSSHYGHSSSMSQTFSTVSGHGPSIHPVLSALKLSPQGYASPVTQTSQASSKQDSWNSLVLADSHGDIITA
T1 sequence (P42582 whole entry): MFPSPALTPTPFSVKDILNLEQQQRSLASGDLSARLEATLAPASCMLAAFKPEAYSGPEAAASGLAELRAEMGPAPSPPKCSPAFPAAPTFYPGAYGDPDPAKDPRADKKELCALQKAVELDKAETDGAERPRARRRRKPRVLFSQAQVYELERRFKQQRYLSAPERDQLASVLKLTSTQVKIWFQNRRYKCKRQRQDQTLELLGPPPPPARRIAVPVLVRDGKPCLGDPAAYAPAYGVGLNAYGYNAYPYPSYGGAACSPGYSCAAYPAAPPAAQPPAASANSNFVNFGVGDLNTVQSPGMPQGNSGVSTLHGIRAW

Take `CCN(CC)c1ccc(NC(=O)c2c(-c3c(Cl)ccc([N+](=O)[O-])c3Cl)noc2C)cc1` [Compound 39f, 3-(2,6-Dichloro-3-nitrophenyl)-N-[4-(diethylamino)phenyl]-5-methylisoxazole-4-carboxamide]: under setting [1], the activity at 3 µM worked out at 76.3%.
On to `CCN(CC)c1ccc(NC(=O)c2c(-c3ccccc3[N+](=O)[O-])noc2C)cc1` [Compound 39h], for which the activity at 3 µM under setting [1] turned out to be 89.5%.
As to `CCN(CC)c1ccc(NC(=O)c2c(-c3ccc(Br)cc3)noc2C)cc1` [Compound 39i], under setting [2], the activity at 3 µM is 95.1%.
As to `CCN(CC)c1ccc(NC(=O)c2c(-c3ccc(-c4ccc(F)cc4)cc3)noc2C)cc1` [Compound 39j], under setting [2], the activity at 3 µM amounted to 115%. For the same molecule, the activity at 10 µM under setting [3] amounted to 114%.
In the case of `CCN(CC)c1ccc(NC(=O)c2c(-c3cc(Br)cs3)noc2C)cc1` [Compound 39l], the activity at 3 µM under setting [4] turned out to be 91%.
In the case of `Cc1onc(-c2cccc([N+](=O)[O-])c2)c1C(=O)Nc1ccc(N(C)C)cc1` [Compound 40], the activity at 3 µM under setting [1] amounted to 95%. For the same molecule, the activity at 10 µM under setting [5] amounted to 101%.
Turning to `CCN(CC)c1ccc(NC(=O)c2ncoc2-c2ccccc2)cc1` [Compound 47a], the activity at 3 µM under setting [6] worked out at 90.7%. Under setting [7], the activity at 10 µM amounted to 112%.
As for `CCN(CC)c1ccc(NC(=O)c2ccnc(C(F)(F)F)c2)cc1` [Compound 47ac], the activity at 3 µM under setting [2] worked out at 88.3%.
As for `CCN(CC)c1ccc(NC(=O)c2nn(-c3ccccc3)nc2C)cc1` [Compound 47b], the activity at 3 µM under setting [6] turned out to be 97.7%. Besides, the activity at 10 µM under setting [7] was determined as 101%.
Regarding `CCN(CC)c1ccc(NC(=O)c2cnn(C)c2-c2ccccc2)cc1` [Compound 47e], the activity at 3 µM under setting [8] came to 81.1%.
For the molecule `CCN(CC)c1ccc(NC(=O)c2c[nH]nc2-n2cnnn2)cc1` [Compound 47g, N-[4-(Diethylamino)phenyl]-3-(1H-tetrazol-1-yl)-1H-pyrazole-4-carboxamide], the activity at 3 µM under setting [2] turned out to be 102%.
Turning to `CCN(CC)c1ccc(NC(=O)c2ccoc2CCc2cccs2)cc1` [Compound 47i], the activity at 3 µM under setting [2] was 89%. Further, under setting [3], the activity at 10 µM was determined as 103%.
As to `CCN(CC)c1ccc(NC(=O)c2c(-c3ccccc3)nnc3ccccc23)cc1` [Compound 47j], under setting [8], the activity at 3 µM is 113%.
With `CCN(CC)c1ccc(NC(=O)c2c(-c3ccccc3)nnn2CCOC)cc1` [Compound 47k], the activity at 3 µM under setting [8] worked out at 73.2%.
Same read-out and setting: the figure for `CCN(CC)c1ccc(NC(=O)c2c(-c3ccccc3)nnn2C)cc1` [Compound 47o] is 113%; for `CCN(CC)c1ccc(NC(=O)c2nnn(C)c2-c2ccccc2)cc1` [Compound 47p] it is 86.8%.
Regarding `CCN(CC)c1ccc(NC(=O)c2c(C(F)(F)F)nn(C)c2Oc2ccccc2)cc1` [Compound 47q], the activity at 3 µM under setting [2] was determined as 94.5%.
As for `CCN(CC)c1ccc(NC(=O)c2cnoc2C2CC2)cc1` [Compound 47r], under setting [6], the activity at 3 µM is 114%. The activity at 10 µM under setting [7] worked out at 145%.
For the molecule `CCN(CC)c1ccc(NC(=O)c2csc3nnsc23)cc1` [Compound 47v], the activity at 3 µM under setting [2] is 95.9%. Further, the activity at 10 µM under setting [3] stood at 132%.
Taken in the same sequence, the figures for `CCN(CC)c1ccc(NC(=O)c2c(SC)nsc2SC)cc1` [Compound 47w] were 115% and 112%.
In the case of `CCN(CC)c1ccc(NC(=O)c2ncoc2-c2ccco2)cc1` [Compound 47x], the activity at 3 µM under setting [4] came to 116%. For the same molecule, the activity at 10 µM under setting [9] is 116%.
On to `CCN(CC)c1ccc(/N=C/c2onc(-c3ccccc3)c2C(=O)Nc2ccc(N(CC)CC)cc2)cc1` [Compound 48], for which, under setting [6], the activity at 3 µM amounted to 74.9%. For the same molecule, under setting [7], the activity at 10 µM is 54.1%.
In the case of `CCN(CC)c1ccc(/N=C/c2onc(-c3ccccc3)c2C(=O)OC)cc1` [Compound 51], the activity at 3 µM under setting [1] worked out at 81.3%. Besides, the activity at 10 µM under setting [5] came out at 93.5%.
For `CCN(CC)c1ccc(NC(=O)c2ccsc2)cc1` [Compound 55], under setting [7], the activity at 10 µM was 108%.
As to `CCN(CC)c1ccc(NC(=O)C2CCCC2)cc1` [Compound 57], the activity at 3 µM under setting [4] was 112%. Further, under setting [9], the activity at 10 µM was determined as 115%.
Take `CCN(CC)c1ccc(NC(=O)c2c(-c3ccccn3)noc2C)cc1` [Compound 59]: the activity at 3 µM (COS-1, GATA4-NKX2-5 transcriptional synergy luciferase reporter assay, compound at 3 µM) worked out at 90.9%. For the same molecule, the activity at 10 µM (COS-1, GATA4-NKX2-5 transcriptional synergy luciferase reporter assay, compound at 10 µM) turned out to be 104%.
For the molecule `CCN(c1ccc(NC(=O)c2c(C)noc2-c2snnc2C)cc1)C(C)C` [Compound 62], the activity at 3 µM under setting [2] is 31%.
For the molecule `Cc1onc(-c2ccccc2)c1NC(=O)c1ccc(N2CCN(C)CC2)cc1` [Compound 67], the activity at 3 µM under setting [1] was determined as 90.6%. Under setting [5], the activity at 10 µM came out at 124%.
Take `Cc1onc(-c2ccccc2)c1C(=O)N(C)c1ccc(C(=O)O)cc1` [Compound 68]: the activity at 3 µM under setting [4] worked out at 117%. The activity at 10 µM under setting [9] was determined as 127%.
Turning to `CCC(C)NC(=O)c1cc(-c2ccco2)on1` (centres unmarked) [Compound 69], under setting [4], the activity at 3 µM stood at 127%. For the same molecule, the activity at 10 µM under setting [9] was 138%.
For the molecule `CC(=O)c1ccc(NC(=O)c2cc(-c3ccco3)on2)cc1` [Compound 70], the activity at 3 µM under setting [4] amounted to 115%.
Consider `CCSCCOC(=O)c1ccc(NC(=O)c2c(-c3ccccc3)noc2C)cc1` [SI1], for which the activity at 3 µM under setting [4] was found to be 115%. In addition, the activity at 10 µM under setting [9] is 104%.
As to `Cc1onc(-c2ccccc2)c1C(=O)Nc1ccc(C(=O)OCc2ccco2)cc1` [SI2], the activity at 3 µM under setting [4] was found to be 99.4%. Also, the activity at 10 µM under setting [9] is 82.7%.
For `CC(=O)COC(=O)c1ccc(NC(=O)c2c(-c3ccccc3)noc2C)cc1` [SI3], the activity at 3 µM under setting [4] stood at 85.8%. Under setting [9], the activity at 10 µM came out at 98.5%.
Consider `Cc1onc(-c2ccccc2)c1C(=O)Nc1ccc(Nc2ccccc2)cc1` [SI5], for which, under setting [6], the activity at 3 µM was determined as 105%. Also, the activity at 10 µM under setting [7] came out at 89.1%.
Taken in the same sequence, the figures for `CCN(C(=O)c1c(-c2ccccc2)noc1C)c1ccc(Nc2ccccc2)cc1` [SI6] were 114% and 87.2%.
The matching figures for `CCCCOc1ccc(NC(=O)c2c(-c3ccccc3)noc2C)cn1` [SI7]: 97.9% and 79%.
For `Cc1onc(-c2ccccc2)c1C(=O)Nc1nc2ccccc2n1C` [SI9], under setting [1], the activity at 3 µM is 83.5%. The activity at 10 µM under setting [5] was found to be 78%.
Turning to `Cc1cc(NC(=O)c2c(-c3ccccc3)noc2C)ncc1[N+](=O)[O-]` [SI10], the activity at 3 µM under setting [1] turned out to be 116%. Under setting [5], the activity at 10 µM was 78.3%.
Taken in the same sequence, the figures for `Cc1onc(-c2ccccc2)c1C(=O)Nc1ccc(C(=O)Nc2ccccc2)cc1` [SI11] were 80.1% and 98.5%.
Taken in the same sequence, the figures for `Cc1onc(-c2ccccc2)c1C(=O)Nc1cnc2ccccc2c1` [SI12] were 108% and 99.5%.
`Cc1onc(-c2ccccc2)c1C(=O)Nc1ccc(OCC(F)(F)F)c(Cl)c1` [SI13]: under setting [4], the activity at 3 µM was 89.2%. In addition, under setting [9], the activity at 10 µM came to 71.6%.
As for `Cc1onc(-c2ccccc2)c1C(=O)Nc1ccc2c(c1)C(=O)CCC2` [SI14], the activity at 3 µM under setting [4] turned out to be 107%. The activity at 10 µM under setting [9] came to 98.2%.

The values are drawn from PMC7076710, “Synthesis, Identification, and Structure–Activity Relationship Analysis of GATA4 and NKX2-5 Protein–Protein Interaction Modulators” (Journal of Medicinal Chemistry, 2019).
